Tests used:
[1] = tested on: HepG2 cells; assay: Cell vitality (ATP lite kit); assay type: cell-based, human; details: for Vitality %): [conc.]final 1.0 mM, HepG2, 72-hour (3x24 hr) treatment, control = 100
Description: In order to analyse the effects of the solution of the invention, alpha lipoic acid contained therein was digested in artificial gastric juice and subsequently administered in the culture medium at the final concentration of 0.5 or 1mM. The cell vitality effects recorded were compared with those achieved in a parallel control experiment wherein alpha lipoic acid dissolved in a solvent of election for cell studies, i.e. DMSO (but not digested in gastric juice) was used. […]

[2] = tested on: SK-N-SH cell cultures; assay: ROS induced from H2O2 in cell cultures; assay type: cell-based, human; details: for Ros (% compared to ctrl) 24h: 24h pre-treatment, then 2 hours 1.5mM mM H2O2; for Ros (% compared to ctrl) 48h: 48h pre-treatment, then H2O2
Description: Another important function ascribable to lipoic acid is that of contrasting the formation of reactive species of oxygen induced from H2O2. […] A further aim was to verify whether R-alpha lipoic acid retained this function also in an aqueous solution. For this reason, increasing doses of the same, coming from the above-used solution of the invention and subjected to digestion in artificial gastric juice, were added to the culture medium for different intervals of time (24 hr and 48 hr) before inducing an oxidative stress with H2O2. The same reaction was performed as a control, by using the R-alphaLA prepared in DMSO, but dissolved directly in medium to obtain the same working concentrations.
In Table 10, the values of ROS are reported as % with respect to those observed in the controls after 24 hours of maintenance in the culture and 2 hours of treatment with 1.5mM mM H2O2. In the first box of the Table, the results are shown as obtained after administration of R-alphaLA prepared in DMSO and then diluted directly in the medium to obtain the reference final concentrations; in the second box, on the other hand, R-alphaLA was first dissolved in the solution of the invention, subsequently digested in gastric juice and finally diluted in the medium. As summarised in Table 10, in each case, a dose-dependent response of alpha lipoic acid in preventing the formation of the ROS was observed over the first 24 hours.

[3] = tested on: HepG2 cells; assay: Glucose in the medium, insulin-resistant diabetes cellular model (Glucose assay kit); assay type: cell-based, human; details: 1 mM for 48 hr; HepG2 in medium enriched with glucose 30mM; reference control = 100%
Description: Lastly, the hypoglycaemia-inducing action of the lipoic acid formulated in aqueous solution of the invention was also evaluated, by utilising an insulin-resistant diabetes cellular model. HepG2 cells cultivated in a medium enriched with glucose and free of insulin mimicked certain conditions present in the hepatocytes of diabetic patients; in addition, certain functions of the culture medium, considered as a container of nutritional substances and an accumulation container for those substances excreted, could be compared to plasma circulation. […]
Table 11 reports some of the most significant results achieved by using the Sigma Aldrich Glucose assay kit to determine the glucose; more specifically, the values obtained from the culture medium following administration for 48 hr of lipoic acid (1mM) prepared in DMSO or formulated in aqueous solution at 30 % of propylene glycol, in accordance with the present invention. The most significant decrease in glucose was in fact observed with the R-enantiomer of alpha lipoic acid in the solution of the invention.

[4] = humans, oral route, 600 mg, various formulations; cited from earlier work

Structure (SMILES)	cell vitality values compared to the control ([1]; 1mM, 48-hr treatment, dissolved in DMSO, HepG2, previous tests)	Vitality %) [1] [%]	Ros (% compared to ctrl) 24h ([2]; 100µM) [%]	Ros (% compared to ctrl) 48h ([2]; 100µM) [%]	Ros (% compared to ctrl) 24h ([2]; 200µM) [%]	Ros (% compared to ctrl) 48h ([2]; 200µM) [%]	Glucose in the medium (%) [3] [%]	bioavailability [4]
O=C(O)CCCC[C@@H]1CCSS1 [(R) alphaLA (in DMSO), alpha-R-lipoic acid]	halved	40.33	77.87	99.26	49.18	103.98	89	–
O=C(O)CCCCC1CCSS1 (racemic) [(RS) alphaLA (in DMSO), alpha lipoic acid]	–	35.48	–	–	–	–	–	–
O=C(O)CCCCC1CCSS1 (stereo not drawn) [lipoic acid, 1,2-dithiolane-3-pentanoic acid]	–	–	–	–	–	–	–	less than 30%
